The numbers were not newly measured in article PMC5364125 (EJNMMI Research, 2017), which cites them from elsewhere.

One may read the logP as the decadic logarithm of the partition coefficient of the neutral form, usually between octanol and water.

On the set-up of data set [1]: method as in PMID 25616581. Conditions: cited from earlier work.
Data set [2] has as its system TSPO. The following applies: human subjects; cited from earlier work.
On the set-up of data set [3]: method as in PMID 27329083. Conditions: cited from earlier work.
On the set-up of data set [4]: method as in PMID 27329083. The following applies: rats; cited from earlier work.
For data set [5], the system named is TSPO. The following applies: cited from earlier work.

In the case of `CC[C@@H](C)N(C)C(=O)c1cc2ccccc2c(-c2ccccc2Cl)n1` [(R)-PK11195, reference compound], the log partition coefficient (logP) in data set [1] is 2.54.
With `CC[C@@H](C)N([11CH3])C(=O)c1cc2ccccc2c(-c2ccccc2Cl)n1` [(R)-[^11C]PK11195], in the data set with TSPO [2], the “V T caudate” value was 0.3 ± 0.1, the “V T cerebellum” value is given as 0.3 ± 0.1, the “V T frontal cortex” value was 0.3 ± 0.1 and the “V T parietal cortex” value is reported as 0.4 ± 0.1. Also, in the data set on TSPO [2], the “V T putamen” value is 0.3 ± 0.1 and the “V T thalamus” value was 0.4 ± 0.1.
Consider `CCCN(CCC)C(=O)Cc1c(-c2ccc(OC)cc2)nc2c(Cl)cc(Cl)cn12` [CB184], for which the mutagenicity result in data set [3] is reported as “absence of mutagenicity”. In data set [4], the “abnormalities in the acute toxicity test” value is given as “absence of any abnormalities”. Also, the lipophilicity (logP) in data set [1] is 2.06. Further, the “relative TSPO binding affinity to (R)-PK11195” value (shortened to “relative TSPO binding affinity”) with TSPO [5] was 7.9 fold. For the same compound, on TSPO [5] (read-out: K i, affinity for TSPO), the Ki was 540 pM.
Take `CCN(CC)C(=O)Cc1c(-c2ccc(OC)cc2)nn2c(C)cc(C)nc12` [DPA-713]: in the data set on TSPO [5], the “relative TSPO binding affinity” value is 2 fold.
Take `CCN(CC)C(=O)Cc1c(-c2ccc(OCCF)cc2)nn2c(C)cc(C)nc12` [DPA-714]: the “relative TSPO binding affinity” value in the data set with TSPO [5] is given as 1.3 fold.
For `COc1ccccc1CN(C(C)=O)c1cnccc1Oc1ccccc1` [PBR28], in the data set with TSPO [5], the “relative TSPO binding affinity” value was 2–5 folds.
Consider `CCN(CC)C(=O)Cc1c(-c2ccc(O[11CH3])cc2)nn2c(C)cc(C)nc12` [[^11C]DPA-713], for which, in the data set on TSPO [2], the “V T caudate” value is reported as 3.1 ± 0.6, the “V T cerebellum” value is 3.9 ± 0.9, the “V T frontal cortex” value is recorded as 4.1 ± 0.8 and the “V T parietal cortex” value is recorded as 3.7 ± 0.7. In the data set with TSPO [2], the “V T putamen” value was 3.5 ± 0.6 and the “V T thalamus” value is 4.7 ± 0.9.
